Test results taken from publication doi:10.1101/2025.09.09.675175v1 (biorxiv, 2025).

Columns and labels:
GdpP-C (GdpP313-656) [1] = biological target: T1, GdpP-C (GdpP313-656) (Staphylococcus aureus, UniProt Q2G2T6); assay: phosphomolybdate blue Pi release, Michaelis-Menten fit; format: biochemical
T1 sequence (Q2G2T6 313-655): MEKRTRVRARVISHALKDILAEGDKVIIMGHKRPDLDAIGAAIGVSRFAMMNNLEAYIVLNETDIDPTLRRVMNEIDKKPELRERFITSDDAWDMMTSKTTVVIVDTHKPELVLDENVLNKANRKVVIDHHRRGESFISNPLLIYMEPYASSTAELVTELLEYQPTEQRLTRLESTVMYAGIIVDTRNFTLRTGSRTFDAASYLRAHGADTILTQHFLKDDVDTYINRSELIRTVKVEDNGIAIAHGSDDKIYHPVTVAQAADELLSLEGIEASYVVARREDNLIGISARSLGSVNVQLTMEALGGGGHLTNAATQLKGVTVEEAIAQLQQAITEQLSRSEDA

GdpP-C (GdpP313-656) [2] = biological target: T1, GdpP-C (GdpP313-656); assay: isothermal titration calorimetry; format: binding

SMILES: CC(=O)CCCCn1c(=O)c2c(ncn2C)n(C)c1=O [pentoxifylline]
- Ki (GdpP-C (GdpP313-656) [1]): 68.3 µM
- Kd (GdpP-C (GdpP313-656) [2]): 33.2 µM
